Data from ChEMBL document CHEMBL6134901 (J Med Chem, 2025).
≈ marks a conversion by molar mass, not a printed value. Calls of active or inactive are those of the source. No cut-off for these calls is given here.

Tests used:
Clostridioides difficile [1] = experiment: Antibacterial activity against Clostridium difficile ATTC43255 assessed as spore germination inhibition at 45 uM incubated for 60 mins by spectrometry relative to control; format: functional; details: ATTC43255, 1 h
Clostridioides difficile [2] = experiment: Antibacterial activity against Clostridium difficile ATTC43255 assessed as spore germination inhibition incubated for 60 mins by spectrometry; format: functional, organism-based; details: for IC50: ATTC43255, 1 h
[3] = Cytotoxicity against human HepG2 cells incubated for 24 hrs by XTT assay; format: toxicity, cell-based; details: read-out: LD50
Clostridioides difficile [4] = experiment: Antibacterial activity against metronidazole-resistant Clostridium difficile […] clinical isolate; format: functional
Clostridioides difficile [5] = experiment: Antibacterial activity against fidaxomicin-resistant Clostridium difficile RMA23691 clinical isolate; format: functional
Clostridioides difficile [6] = experiment: Antibacterial activity against Clostridium difficile RMA26675; format: functional
Clostridioides difficile [7] = experiment: Antibacterial activity against Clostridium difficile RMA23828; format: functional
Bacteroides fragilis = experiment: Antibacterial activity against Bacteroides fragilis HM-709; format: functional
Eubacterium sp. = experiment: Antibacterial activity against Eubacterium sp. HM-178; format: functional
Veillonella = experiment: Antibacterial activity against Veillonella sp. HM-49; format: functional
Fusobacterium nucleatum = experiment: Antibacterial activity against methicillin/oxacillin/tetracycline-resistant mecA-positive Fusobacterium nucleatum HM-992; format: functional
[8] = test system: Limosilactobacillus reuteri; experiment: Antibacterial activity against vancomycin-susceptible Lactobacillus reuteri HM-102 clinical isolate; format: functional
Lactobacillus gasseri = experiment: Antibacterial activity against Lactobacillus gasseri HM-644; format: functional
Bifidobacterium longum = experiment: Antibacterial activity against Bifidobacterium longum HM-846; format: functional
Klebsiella pneumoniae = experiment: Antibacterial activity against Klebsiella pneumoniae ATCC 700603; format: functional
Acinetobacter baumannii = experiment: Antibacterial activity against Acinetobacter baumannii ATCC 17961; format: functional
Pseudomonas aeruginosa = experiment: Antibacterial activity against Pseudomonas aeruginosa ATCC 27853; format: functional
Klebsiella aerogenes = experiment: Antibacterial activity against Enterobacter aerogenes ATCC 35029; format: functional
Escherichia coli = experiment: Antibacterial activity against Escherichia coli ATCC 25922; format: functional
Staphylococcus aureus [9] = experiment: Antibacterial activity against Staphylococcus aureus ATCC 29213; format: functional
Staphylococcus aureus [10] = experiment: Antibacterial activity against Staphylococcus aureus NRS100; format: functional
Staphylococcus aureus [11] = experiment: Antibacterial activity against Staphylococcus aureus NRS119; format: functional
Staphylococcus aureus [12] = experiment: Antibacterial activity against vancomycin-resistant Staphylococcus aureus VRS1 clinical isolate; format: functional
[13] = test system: Staphylococcus epidermidis; experiment: Antibacterial activity against Staphylococcus epidermidis ATCC 35547; format: functional
[14] = test system: Staphylococcus haemolyticus; experiment: Antibacterial activity against Staphylococcus haemolyticus ATCC 29970; format: functional
Bacillus cereus = experiment: Antibacterial activity against Bacillus cereus ATCC 13061; format: functional
Enterococcus faecalis = experiment: Antibacterial activity against Enterococcus faecalis ATCC 29212; format: functional
Enterococcus faecium [15] = experiment: Antibacterial activity against vancomycin-susceptible Enterococcus faecium 119-39A; format: functional
Enterococcus faecium [16] = experiment: Antibacterial activity against vancomycin-resistant Enterococcus faecium 106 clinical isolate; format: functional
[17] = (§1) Binding affinity to bacterial prepro-SleC assessed as dissociation constant by MST assay; design: species or system Bacteria
[18] = Binding affinity to bacterial pro-SleC assessed as dissociation constant by MST assay; design: species or system Bacteria
Bacteria [19] = experiment: Binding affinity to bacterial pdaA assessed as dissociation constant by MST assay
[20] = (§2) Binding affinity to bacterial GerS assessed as dissociation constant by MST assay; design: species or system Bacteria
Bacteria [21] = experiment: (§3) Binding affinity to bacterial cwID assessed as dissociation constant by MST assay
[22] = (§4) Binding affinity to bacterial CspA assessed as dissociation constant by MST assay; design: species or system Bacteria
[23] = Binding affinity to bacterial CspB assessed as dissociation constant by MST assay; design: species or system Bacteria
[24] = Binding affinity to N-terminal His-tagged full-length Clostridium difficile SleC extracted from Escherichia coli LOBSTR-RIL assessed as dissociation constant by MST assay; design: species or system Clostridioides difficile
Clostridioides difficile [25] = experiment: Inhibition of spore cortex degradation in Clostridium difficile assessed as greenish-blue spheres at 50 uM by Wirtz-Conklin staining based analysis; format: functional, organism-based
Staphylococcus aureus [26] = experiment: Inhibition of Staphylococcus aureus COL PBP1 at 5 ug/ml measured for 24 hrs by absorbance based assay; details: dose 5.0 µg/ml
Staphylococcus aureus [27] = experiment: Inhibition of Staphylococcus aureus COL PBP2 at 5 ug/ml measured for 24 hrs by absorbance based assay; details: dose 5.0 µg/ml
Bacteria [28] = experiment: as §1
Bacteria [29] = experiment: as §2
[30] = as §3; design: species or system Bacteria
Bacteria [31] = experiment: as §4
Bacteria [32] = experiment: Binding affinity to bacterial CspC assessed as dissociation constant by MST assay
Bacillus subtilis = experiment: Inhibition of Bacillus subtilis sacculi-derived SleC
[33] = Binding affinity to bacterial SleC assessed as dissociation constant by MST assay; design: species or system Bacteria
Clostridioides difficile [34] = experiment: Antibacterial activity against Clostridium difficile ATTC43255 assessed as inhibition of vegetative cells; format: functional, organism-based
Clostridioides difficile [35] = experiment: Antibacterial activity against Clostridium difficile ATTC43255 assessed as inhibition of vegetative cells in presence of vancomycin; format: functional, organism-based
Clostridioides difficile [36] = experiment: Antibacterial activity against Clostridium difficile BAA1870 assessed as spore germination inhibition; format: functional, organism-based
Clostridioides difficile [37] = experiment: Post-antibiotic effect in Clostridium difficile ATTC43255 assessed as spore germination inhibition at 60 uM incubated for 1 hr followed by fresh medium replacement without compound measured up to 8 hrs; format: functional, organism-based
[38] = Drug uptake in blood of ICR mouse assessed as drug absorption from intestines at 30 mg/kg, po measured for 1 to 24 hrs by UPLC analysis; format: ADME, organism-based; details: in vivo, time 1-24 hrs
[39] = Cmax in ICR mouse at 30 mg/kg, po measured for 1 to 24 hrs by UPLC analysis; format: ADME, organism-based; details: in vivo, time 1-24 hrs
[40] = Terminal half life in ICR mouse at 30 mg/kg, po measured for 1 to 24 hrs by UPLC analysis; format: ADME, organism-based; details: in vivo, time 1-24 hrs, read-out: beta t1/2 (converted)
[41] = AUC (0 to 24 hrs) in ICR mouse at 30 mg/kg, po measured for 1 to 24 hrs by UPLC analysis; format: ADME, organism-based; details: in vivo, time 1-24 hrs
[42] = Drug concentration in feces of ICR mouse at 30 mg/kg, po measured after 8 hrs by UPLC analysis; format: ADME, organism-based; details: faeces, read-out: Ct
[43] = Drug concentration in feces of ICR mouse at 30 mg/kg, po measured after 24 hrs by UPLC analysis; format: ADME, organism-based; details: in vivo
[44] = Cmax in feces of Golden Syrian hamster at 5 mg/kg, po bid measured for 5 days; format: ADME, organism-based, Mesocricetus auratus; details: faeces, time 5 day
[45] = Drug concentration in liver of Golden Syrian hamster at 5 mg/kg, po bid measured after 8 hrs; format: ADME, organism-based, Mesocricetus auratus; details: read-out: Ct
[46] = Drug concentration in brain of Golden Syrian hamster at 5 mg/kg, po bid measured after 8 hrs; format: ADME, organism-based, Mesocricetus auratus; details: read-out: Ct
[47] = Drug concentration in kidney of Golden Syrian hamster at 5 mg/kg, po bid measured after 8 hrs; format: ADME, organism-based, Mesocricetus auratus; details: read-out: Ct

Oc1ccc(-c2nc(-c3ccc(OC4CCCC4)cc3)no2)cc1
inhibition at 45 µM (Clostridioides difficile [1]): 26% | IC50 (Clostridioides difficile [2]): 74 µM | CC50 at 24 h [3]: 22 µg/mL (≈ 68.2 µM) | MIC (Clostridioides difficile [4]): 2 µg/mL (≈ 6.2 µM) | MIC (Clostridioides difficile [5]): 4 µg/mL (≈ 12.4 µM) | MIC (Clostridioides difficile [6]): 4 µg/mL (≈ 12.4 µM) | MIC (Clostridioides difficile [7]): 4 µg/mL (≈ 12.4 µM) | MIC (Bacteroides fragilis): 2 µg/mL (≈ 6.2 µM) | MIC (Eubacterium sp.): 0.5 µg/mL (≈ 1.55 µM) | MIC (Veillonella): > 128 µg/mL | MIC (Fusobacterium nucleatum): 2 µg/mL (≈ 6.2 µM) | MIC [8]: > 128 µg/mL | MIC (Lactobacillus gasseri): > 128 µg/mL | MIC (Bifidobacterium longum): 1 µg/mL (≈ 3.1 µM) | MIC (Klebsiella pneumoniae): > 128 µg/mL | MIC (Acinetobacter baumannii): > 128 µg/mL | MIC (Pseudomonas aeruginosa): > 128 µg/mL | MIC (Klebsiella aerogenes): > 128 µg/mL | MIC (Escherichia coli): > 128 µg/mL | MIC (Staphylococcus aureus [9]): 2 µg/mL (≈ 6.2 µM) | MIC (Staphylococcus aureus [10]): 2 µg/mL (≈ 6.2 µM) | MIC (Staphylococcus aureus [11]): 2 µg/mL (≈ 6.2 µM) | MIC (Staphylococcus aureus [12]): 2 µg/mL (≈ 6.2 µM) | MIC [13]: 2 µg/mL (≈ 6.2 µM) | MIC [14]: 2 µg/mL (≈ 6.2 µM) | MIC (Bacillus cereus): 2 µg/mL (≈ 6.2 µM) | MIC (Enterococcus faecalis): 4 µg/mL (≈ 12.4 µM) | MIC (Enterococcus faecium [15]): 2 µg/mL (≈ 6.2 µM) | MIC (Enterococcus faecium [16]): 2 µg/mL (≈ 6.2 µM) | Kd [17]: 4.3 µM | Kd [18]: 91 µM | Activity (Bacteria [19]): inactive | Kd [20]: > 200 µM | Activity (Bacteria [21]): inactive | Kd [22]: > 200 µM | Kd [23]: 75 µM | Kd [24]: > 200 µM

Cl.NCc1ccc(-c2nc(-c3ccnc(Oc4ccc(C(F)(F)F)cc4)c3)no2)cc1
inhibition (Clostridioides difficile [25]): Active | inhibition at 45 µM (Clostridioides difficile [1]): 84% | inhibition (Clostridioides difficile [2]): Dose-dependent-effect | IC50 (Clostridioides difficile [2]): 14 µM | CC50 at 24 h [3]: 51 µg/mL | MIC (Clostridioides difficile [4]): 16 µg/mL | MIC (Bacteroides fragilis): 32 µg/mL | MIC (Eubacterium sp.): 16 µg/mL | MIC (Veillonella): > 128 µg/mL | MIC [8]: 32 µg/mL | MIC (Klebsiella pneumoniae): > 128 µg/mL | MIC (Acinetobacter baumannii): > 128 µg/mL | MIC (Pseudomonas aeruginosa): > 128 µg/mL | MIC (Klebsiella aerogenes): > 128 µg/mL | MIC (Escherichia coli): > 128 µg/mL | MIC [14]: 8 µg/mL | MIC (Enterococcus faecalis): 4 µg/mL | inhibition (Staphylococcus aureus [26]): Active | inhibition (Staphylococcus aureus [27]): Active | Activity (Bacteria [28]): inactive | Kd [18]: 16 µM | Activity (Bacteria [29]): inactive | Kd [30]: 54 µM | Activity (Bacteria [31]): inactive | Kd [23]: 8 µM | Activity (Bacteria [32]): inactive | inhibition (Bacillus subtilis): Active | Kd [33]: 12 µM | IC50 (Clostridioides difficile [34]): 46.2 µM | IC50 (Clostridioides difficile [35]): 22.7 µM | IC50 (Clostridioides difficile [36]): 13 µM | inhibition (Clostridioides difficile [37]): Active | Drug uptake [38]: Active | Cmax [39]: 1440 ng/mL | half-life [40]: 6.3 h | AUC(0-t) [41]: 17000 ng·h/mL | concentration at 8 h [42]: 11000 ng/g | Ct [43]: Below_limit_of_detection | Cmax [44]: ~4000 ng/g | concentration at 8 h [45]: 5600 ng/g | concentration at 8 h [46]: 15000 ng/g | concentration at 8 h [47]: 56000 ng/g
